Data as given in paper PMC4704022, “Insights on FXR selective modulation. Speculation on bile acid chemical space in the discovery of potent and selective agonists” (Scientific Reports, 2016).
Entries after “also recorded” stand apart in the source; their conditions may differ.

Assays:
GPBAR1 = biological target: T1, GPBAR1 (Homo sapiens, UniProt Q8TDU6); experiment: GPBAR1 antagonism, transactivation assay in HEK-293T cells stimulated with TLCA; type: cell-based
T1 construct: expressed in transfected cells; host or cells: HEK-293T
T1 sequence (Q8TDU6 1-330): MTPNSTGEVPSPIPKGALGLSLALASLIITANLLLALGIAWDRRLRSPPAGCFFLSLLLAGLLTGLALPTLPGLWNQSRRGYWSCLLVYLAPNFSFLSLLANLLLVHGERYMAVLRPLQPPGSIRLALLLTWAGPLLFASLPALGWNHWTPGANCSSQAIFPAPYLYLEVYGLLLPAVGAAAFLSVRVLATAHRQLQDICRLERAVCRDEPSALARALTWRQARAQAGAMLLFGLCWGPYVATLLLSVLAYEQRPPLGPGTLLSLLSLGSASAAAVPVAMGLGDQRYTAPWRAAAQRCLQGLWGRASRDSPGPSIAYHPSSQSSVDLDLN
Excerpt: Figure 9 Antagonism on GPBAR1 by transactivation assay. (A) HEK-293T cells were transfected as described in Fig. 8. […] Results are expressed as mean ± standard error.
To investigate GPBAR1 activation, HEK-293T cells were transiently transfected with Fugene HD reagent (Promega) using the following vectors: pCMVSPORT6-human GPBAR1, pGL4.29 (Promega), a reporter vector containing a cAMP response element (CRE) cloned upstream to the luciferase reporter gene luc2P and pGL4.70. […] Dose-response curves were performed in HEK-293T cells transfected as described above and treated with increasing concentrations of 9 and 21 (from 100 nM to 50 μM). […] At 18 h post stimulations, cellular lysate was assayed for luciferase and renilla activities using the Dual-Luciferase Reporter assay system (E1980, Promega). Luminescence was measured using Glomax 20/20 luminometer (Promega). Luciferase activities were normalized with Renilla activities.

[1] = system: FXR target genes (OSTα, SHP, BSEP); experiment: In vivo effect on FXR target genes in mouse liver (Real-Time PCR); design: species or system C57BL6 mice; details: mice, 15 mg/kg ip, 6 h, versus control mice
Method: Figure 10 In vivo effect of 10 on FXR target genes. C57BL6 mice were administered with 10 (15 mg/Kg) for 6 h. After treatment liver were removed and the relative mRNA expression of OSTα, SHP and BSEP was assayed by quantitative Real-Time PCR. *p < 0.05 versus control mice.
C57BL6 mice were administered with compound 10 (15 mg/kg, ip). At 6 h post-treatment, livers and blood were collected.
Total RNA was extracted using the TRIzol reagent (Life Technologies). First, 1 μg of RNA was purified of the genomic DNA by DNase I treatment (Life Technologies) and random reverse-transcribed with Superscript II (Life Technologies) in a 20 μL reaction volume. Then 10 ng of cDNA was amplified in a final volume of 20 μL in a mix containing 200 nM of each sense/antisense primers and 10 μL of 2× SYBR Select Master mix (Life Technologies). RT-PCR reactions were performed in duplicate and the thermal cycling conditions were: 2 min at 95 °C, followed by 40 cycles of 95 °C for 20 s, 60 °C for 30 s on Step One Plus Instrument (ABI). The relative mRNA expression was calculated and expressed as 2^−(ΔΔCt). Sense and antisense primer sequences were the following: mouse GAPDH, […] and […]; mOSTα, […] and […]; mBSEP, […] and […]; mSHP, […] and […].

FXR-LBD = biological target: T2, FXR-LBD (Homo sapiens, UniProt Q96RI1); experiment: Alphascreen coactivator recruitment assay, FXR-LBD with SRC-1 peptide; type: biochemical; details: ligand at 2 μM, effect of 6 set as 100%
T2 construct: 10 nM of purified GST-tagged FXR-LBD protein
T2 sequence (Q96RI1 262-486 limits assumed): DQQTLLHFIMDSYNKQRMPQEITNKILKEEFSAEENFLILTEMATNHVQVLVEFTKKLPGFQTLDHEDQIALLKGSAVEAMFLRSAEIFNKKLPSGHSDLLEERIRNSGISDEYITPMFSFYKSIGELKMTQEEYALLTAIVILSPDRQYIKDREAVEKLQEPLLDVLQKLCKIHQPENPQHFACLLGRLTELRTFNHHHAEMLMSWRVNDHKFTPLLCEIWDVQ
Method: Figure 7 Coactivator recruitment assay measuring a direct interaction of FXR with SRC-1. Anti-GST-coated acceptor beads captured GST-fusion FXR-LBD and the biotinylated-SRC-1 peptide was captured by the streptavidin donor beads. FXR-LBD recruited SRC-1 in the presence of ligand at 2 μM and, upon illumination at 680 nm, chemical energy is transferred from donor to acceptor beads across the complex streptavidin-donor/Src-1-biotin/ligand/GSTFXR-LBD/anti-GST-acceptor and a signal is produced. Results are expressed as percentage of the effect of 6 arbitrarily settled as 100%. NT is referred to the experiment carried out in absence of ligand. Results are expressed as mean ± standard error.
The relative potency of selected members of this novel family was then investigated by a detailed measurement of concentration-response curve of the 3-deoxy sulfate derivative 9, the corresponding carboxylic acid 10, and the 3β-hydroxyl alcohol 15 and carboxylic acid derivative 17, all sharing the 6α/7α configuration, on FXR transactivation. […] In this assay, the ligand induces the recruitment of the coactivator to the LBD of hFXR.
Anti-GST-coated acceptor beads were used to capture the GST-fusion FXR-LBD, whereas the biotinylated-SRC-1 peptide was captured by the streptavidin donor beads. Upon illumination at 680 nm, chemical energy is transferred from donor to acceptor beads across the complex streptavidin-donor/Src-1-biotin/GSTFXR-LBD/anti-GST-acceptor and a signal is produced. The assay was performed in white, low-volume, 384-well Optiplates (PerkinElmer) using a final volume of 25 μL containing final concentrations of 10 nM of purified GST-tagged FXR-LBD protein, 30 nM biotinylated Src-1 peptide, 20 μg/mL anti-GST acceptor beads acceptor beads, and 10 μg/mL of streptavidin donor bead (PerkinElmer). The assay buffer contained 50 mM Tris (pH 7.4), 50 mM KCl, 0.1% BSA, and 1 mM DTT. […] After the addition of the detection mix (acceptor and donor beads), the plates were incubated in the dark for 4 h at room temperature and then were read in an Envision microplate analyzer (PerkinElmer).

CC[C@H]1[C@@H](O)[C@@H]2[C@H](CC[C@]3(C)[C@@H]([C@H](C)CCC(=O)O)CC[C@@H]23)[C@@]2(C)CCCC[C@@H]12 [compound 10, 6α-ethyl-7α-hydroxy-5β-cholan-24-oic acid]
GPBAR1 antagonism (in words) (GPBAR1; HEK-293T, 10 μM TLCA in combination with 25 μM compound): showed inhibitory activity against GPBAR1 transactivation induced by TLCA
IC50 (GPBAR1; read-out: IC50, antagonism of TLCA-induced GPBAR1 transactivation): 11 µM
Relative mRNA expression of BSEP in liver [1]: significantly up-regulated; also recorded: increased the expression
Relative mRNA expression of OSTα in liver [1]: significantly up-regulated; also recorded: increased the expression
Relative mRNA expression of SHP in liver [1]: significantly up-regulated; also recorded: increased the expression
Tauro-conjugated bile acids (tMu, tCA, tHCA, tCDCA, tDCA, tLCA), plasmatic concentration (mice, 15 mg/kg ip, 6 h): unaffected
Blood concentration of 7α-hydroxy-4-cholesten-3-one (mice, 15 mg/kg, indirect measure of CYP7A1 activity): reduced
Form of the compound found in blood (mouse, in vivo, ip, 15 mg/kg): only found in the conjugated form with taurine
Recruitment of SRC-1 coactivator to FXR-LBD (in words) (FXR-LBD): very potent activity in the recruitment of SRC-1 co-activator
